Laboratory results from patent US10980754B2, “Anti-fungal compounds” (SAINT LOUIS UNIVERSITY, priority 2016, dated 2021).
≈ marks a conversion by molar mass, not a printed value.

Assays:
[1] = system: C. neoformans var grubii, KN99; test: Inhibition of C. neoformans growth, limiting dilution assay (MIC); format: cell-based; conditions: for MIC80: KN99α, minimal concentration inhibiting 80% of growth relative to vehicle; for MIC80 / MIC: YNB-02+1% DMSO, 35° C., 48 hours; for activity against C. neoformans (in words): MIC assay
Protocol: Strains and media. All inhibition assays were performed with C. neoformans var grubii, KN99 (serotype A, MATα; kindly provided by Jennifer Lodge). Two clinical strains of C. neoformans var grubii, serotype A, were kindly provided by Tamara Doering and Andre Spec. […] Each assay was done in triplicate and all values are the average of two or more independent assays. The data are presented as the average cell density as a percent of DMSO-only treated cells. […] However, these conditions are unlike conditions encountered by C. neoformans in mammalian infections, where nutrients are limited, and the pH and temperature are higher than in YPD media. The cryptococcal stress response to low glucose and high pH and temperature may alter its susceptibility to the inhibitors. It is also possible that the enzymes targeted by the inhibitors may render the cell temperature sensitive when inhibited. To better mimic growth in mammals, growth was tested without shaking in nutrient-limited media at 35° C. […] However, as the nutrient-limited media and higher temperature is more similar to mammalian cell growth conditions, these conditions were used for all further assays. […] All values were measured at least two times in independent experiments and the average MIC is reported.

[2] = Cytotoxicity in hepatoma cells (MTS); conditions: human, HepDES19 cells
Protocol: HepDES19 cells (1.0×10^4 cells per well) were seeded in 96-well plates and incubated in DMEM with 10% fetal bovine serum (FBS) plus 1% penicillin and streptomycin, 1% nonessential amino acids, and 1% glutamine. The compounds were diluted in the medium at concentrations ranging from 0.78 to 100 μM plus 1% DMSO and added to the cells 48 hours after plating, with each concentration tested in triplicate. Cells were incubated with the compound for 72 hours and cytotoxicity was measured using a mitochondrial metabolic assay with MTS (Promega). The data were transformed to log[inhibitor] and fit to a 4-variable slope curve using GraphPad Prism (v6, www.graphpad.com).
Three days later, the MTS reagent was added for 90 minutes prior to terminating the incubation period and reading the OD480.

[3] = CC50, HepDES19 cells, 72 hours, MTS

| SMILES | MIC80 ([1]; Cryptococcus neoformans) | CC50 at 72 h [2, 3] | MIC ([1]; Cryptococcus neoformans) | CC50 at 72 h ([2]; CC50, HepDES19, MTS) | MIC80 [1] | activity against C. neoformans (in words) [1] |
| --- | --- | --- | --- | --- | --- | --- |
| CC(C)c1ccc(O)c(=O)cc1 [Compound 48, γ-thujaplicin] | 8 µM (≈ 1.31 µg/mL) | 45 µM | – | – | – | – |
| CC(C)=CCc1ccc(=O)c(O)cc1C(C)C [Compound 49, Nootkatin] | 18 µM (≈ 4.18 µg/mL) | 18.5 µM | – | – | – | – |
| O=C(Oc1cccccc1=O)c1ccc([N+](=O)[O-])cc1 [Compound 51, tropolone p-nitrobenzoate] | 24 µM (≈ 6.51 µg/mL) | > 100 µM | – | – | – | – |
| O=C(Nc1ccc(O)c(=O)cc1)c1ccccc1 [Compound 52] | 50 µM (≈ 12.1 µg/mL) | > 100 µM | – | – | – | – |
| O=c1cccccc1O [Compound 53, Tropolone] | 24 µM (≈ 2.93 µg/mL) | 100 µM | 24 µM (≈ 2.93 µg/mL) | – | – | – |
| CC(=O)NC(CCc1ccc(Cl)c(Cl)c1)c1cccc(O)c(=O)c1 (stereo not drawn) [Compound 55] | 6 µM (≈ 2.2 µg/mL) | 4.3 µM | – | 4 µM | – | – |
| C=C(C)C1CCc2c(c(C)cc(O)c(=O)c2O)C1 (stereo not drawn) [Compound 56, Manicol] | 50 µM (≈ 12.3 µg/mL) | 27 µM | – | – | – | – |
| O=c1cccccc1Cl [Compound 57, 2-chlorotropone] | – | – | – | – | 50 µM (≈ 7.03 µg/mL) | – |
| Cc1ccc(C(=O)Nc2cccccc2=O)cc1 [Compound 60] | 50 µM (≈ 12 µg/mL) | > 100 µM | – | – | – | – |
| Cc1ccc(S(=O)(=O)Oc2cccccc2=O)cc1 [Compound 61] | 41 µM (≈ 11.3 µg/mL) | 30.5 µM | – | 30.5 µM | – | – |
| O=C(Oc1cccccc1=O)c1ccc(Cl)cc1 [Compound 63] | 17 µM (≈ 4.43 µg/mL) | 100 µM | – | – | – | – |
| COC(=O)c1c(C)cc(O)c(=O)c(O)c1C(=O)OC [Compound 106] | 41 µM (≈ 11 µg/mL) | 24.5 µM | – | – | – | – |
| COC(=O)c1c(CCl)cc(O)c(=O)c(O)c1C(=O)OC [Compound 107] | 50 µM (≈ 15.1 µg/mL) | 85.5 µM | – | – | – | – |
| COCc1cc(O)c(=O)c(O)c(C(=O)OC)c1C(=O)OC [Compound 108] | 50 µM (≈ 14.9 µg/mL) | 90.5 µM | – | – | – | – |
| CC(=O)c1cc(O)c(=O)c(O)cc1C [Compound 110] | 50 µM (≈ 9.71 µg/mL) | 19 µM | ≥ 50 µM | – | – | – |
| Cc1cc(O)c(=O)c(O)cc1C(=O)c1ccccc1 [Compound 111] | 36 µM (≈ 9.23 µg/mL) | 26.3 µM | – | – | – | – |
| Cc1cc(O)c(=O)c(O)cc1-c1ccc([N+](=O)[O-])cc1 [Compound 112] | 49 µM (≈ 13.4 µg/mL) | 74 µM | – | – | – | – |
| Cc1cc(O)c(=O)c(O)cc1-c1ccccc1 [Compound 113] | 24 µM (≈ 5.48 µg/mL) | 37.5 µM | – | – | – | – |
| Cc1cc(O)c(=O)c(O)cc1-c1ccc(Br)cc1 [Compound 114] | 11 µM (≈ 3.38 µg/mL) | 18.6 µM | – | – | – | – |
| Cc1cc(O)c(=O)c(O)cc1C(=O)c1ccc(-c2ccccc2)cc1 [Compound 118] | 18 µM (≈ 5.98 µg/mL) | 17.5 µM | – | – | – | – |

| SMILES | MIC80 ([1]; Cryptococcus neoformans) | CC50 at 72 h [2, 3] | MIC ([1]; Cryptococcus neoformans) | CC50 at 72 h ([2]; CC50, HepDES19, MTS) | MIC80 [1] | activity against C. neoformans (in words) [1] |
| --- | --- | --- | --- | --- | --- | --- |
| Cc1cc(O)c(=O)c(O)cc1C(=O)C1CCCCC1 [Compound 120] | 12 µM (≈ 3.15 µg/mL) | 21.5 µM | – | – | – | – |
| Cc1cc(O)c(=O)c(O)cc1C(=O)C(C)C [Compound 143] | 50 µM (≈ 11.1 µg/mL) | > 100 µM | ≥ 50 µM | – | – | – |
| Cc1cc(O)c(=O)c(O)cc1-c1ccc(Cl)cc1 [Compound 144] | 50 µM (≈ 13.1 µg/mL) | – | – | – | – | – |
| Cc1cc(O)c(=O)c(O)cc1-c1ccc(C(F)(F)F)cc1 [Compound 145] | 15 µM (≈ 4.44 µg/mL) | 11 µM | – | – | – | – |
| Cc1cc(O)c(=O)c(O)cc1-c1cccc2ccccc12 [Compound 146] | 20 µM (≈ 5.57 µg/mL) | 20 µM | – | – | – | – |
| O=c1c(O)ccccc1O [Compound 172, 7-Hydroxytropolone] | 24 µM (≈ 3.31 µg/mL) | 100 µM | 24 µM (≈ 3.31 µg/mL) | – | – | little activity |
| Cc1ccc(O)c(=O)c(O)c1 [Compound 210] | 15 µM (≈ 2.28 µg/mL) | 71 µM | ≤ 15 µM | – | – | – |
| O=c1c(O)ccc(-c2ccccc2)cc1O [Compound 262, 2,7-dihydroxy-4-phenylcyclohepta-2,4,6-trien-1-one] | 18 µM (≈ 3.86 µg/mL) | 96 µM | – | – | – | – |
| O=c1c(O)ccc(-c2ccc(-c3ccccc3)cc2)cc1O [Compound 264, 4-([1,1′-biphenyl]-4-yl)-2,7-dihydroxycyclohepta-2,4,6-trien-1-one] | 35 µM (≈ 10.2 µg/mL) | 28 µM | – | – | – | – |
| O=c1c(O)ccc(-c2ccco2)cc1O [Compound 265, 4-(furan-2-yl)-2,7-dihydroxycyclohepta-2,4,6-trien-1-one] | – | – | ≤ 15 µM | – | – | – |
| COC(=O)c1cc(O)c(=O)c(OC)cc1C [Compound 273] | 50 µM (≈ 11.2 µg/mL) | 100 µM | – | – | – | no activity |
| COC(=O)c1c2c(cc(O)c(=O)c1O)COC2=O [Compound 280, Methyl 5,7-dihydroxy-3,6-dioxo-3,6-dihydro-1H-cyclohepta[c]furan-4-carboxylate] | 50 µM (≈ 12.6 µg/mL) | 66 µM | – | – | – | – |
| Cc1ccccc1C(=O)Oc1cccccc1=O [Compound 281] | 50 µM (≈ 12 µg/mL) | 100 µM | – | – | – | – |
| Cc1cc(O)c(=O)c(O)cc1C(=O)c1cccs1 [Compound 308, 4-(thiopene-2-carbonyl)-2,7-dihydroxy-5-methylcyclohepta-2,4,6-trien-1-one] | 11 µM (≈ 2.89 µg/mL) | 24 µM | – | – | – | – |
| Cc1cc(O)c(=O)c(O)cc1C(=O)c1ccco1 [Compound 309, 4-(furan-2-carbonyl)-2,7-dihydroxy-5-methylcyclohepta-2,4,6-trien-1-one] | 24 µM (≈ 5.91 µg/mL) | 35 µM | – | – | – | – |
| Cc1cc(O)c(=O)c(O)cc1C(=O)C1CC1 [Compound 310, 4-(cyclopropanecarbonyl)-2,7-dihydroxy-5-methylcyclohepta-2,4,6-trien-1-one] | 11 µM (≈ 2.42 µg/mL) | 35 µM | – | – | – | – |
| Cc1cc(O)c(=O)c(O)cc1C(=O)c1ccccc1O [Compound 311, 4-(2-hydroxybenzoyl)-2,7-dihydroxy-5-methylcyclohepta-2,4,6-trien-1-one] | 15 µM (≈ 4.08 µg/mL) | 20 µM | – | – | – | – |
| COc1ccc(C(=O)c2cc(O)c(=O)c(O)cc2C)cc1 [Compound 312, 4-(4-methoxybenzoyl)-2,7-dihydroxy-5-methylcyclohepta-2,4,6-trien-1-one] | 18 µM (≈ 5.15 µg/mL) | 18 µM | – | – | – | – |
| Cc1cc(O)c(=O)c(O)cc1C(=O)c1ccc([N+](=O)[O-])cc1 [Compound 313, 2,7-dihydroxy-4-methyl-5-(4-nitrobenzoyl)cyclohepta-2,4,6-trien-1-one] | 24 µM (≈ 7.23 µg/mL) | 46 µM | – | – | – | – |
